Experimental data reported in patent US12077508B2, “Inhibitors of the Notch transcriptional activation complex kinase (“NACK”) and methods for use of the same” (UNIVERSITY OF MIAMI, priority 2018, dated 2024).
“Also recorded” adds a separate entry of the source. Like-named read-outs stand apart in the source and are kept apart here.

Tests used:
OE33 cell line = assay: Colony formation assay in OE33 cells; type: cell-based, human; conditions: for EC50: Homo sapiens, read-out: EC50 colony formation titration assay
Protocol: (§1) A cell based colony formation assay was used in these experiments. Normal mouse mammary epithelia HC11 cells have little or no endogenous NACK expression, and NACK knockdown had no effect on the growth of HC11 cells (FIG. 5A, lower panel). […] Knockdown of NACK was confirmed by western blot and qPCR (FIGS. 1D and 1E). […] Therefore, compounds that affect OE33 colony formation but not HC11 were desired. In order to screen the compounds, cells were treated with test compounds every other day.
(§2) Colony formation assay was utilized to determine the effect of small molecule inhibitors on cell proliferation. In general, different cell lines (NACK dependent or independent) will be seeded in 6-well plates at a density of 2000 cells per well and allowed to attach overnight. Inhibitor treatment commenced 24 hours post seeding, and the media containing inhibitor was changed every 48 hours thereafter. After 168 hours, colonies were be stained with Crystal Violet (Millipore) and counted.

[1] = Maximum tolerated dose in efficacy studies; conditions: mouse, in vivo, ip, 25 mg/kg; 4-week efficacy studies; intraperitoneal
OE33 spheres = assay: Tumor sphere formation assay in OE33; type: cell-based, human
Protocol: In order to assess the effect of hit to lead compounds on the proliferation of stem cell like population of Notch/NACK dependent cells, the primary tumor spheres were treated with NACK inhibitor and allow the cells to be propagated as secondary cultures. To obtain tumor spheres, cells were cultured in DMEM/F12 with 2% B-27 serum-free supplement (17604-044; Invitrogen), 20 ng/mL epidermal growth factor (EGF; PHG0311L; Invitrogen), and 20 ng/mL basic fibroblastic growth factor (bFGF; PHG0266; Invitrogen) for 14 days. Resulting tumor spheres were examined and counted under the microscope. Furthermore, the tumor spheres were collected for further RT-qPCR analysis to test the effect of hit to lead compounds on the stem like target genes.

HC11 cells = assay: Colony formation assay in HC11 cells; type: cell-based, mouse; conditions: Notch/NACK independent cell line; FIG. 5B
Protocol: as §1, §2

OE33 cells = assay: Cell apoptosis assay (Annexin V/PI flow cytometry); type: cell-based, human; conditions: day 7 of treatment, FIG. 9A
Protocol: To investigate how Z271-0326 inhibits cell growth in EAC cell lines, the effect of Z271-0326 treatment was evaluated on apoptosis. OE33 was treated either with the GSI DAPT or Z271-0326 every other day, and their effects on apoptosis were analyzed. On day 7 of treatment, cell apoptosis was analyzed using FITC Annexin V/Dead Cell Apoptosis Kit with FIFC annexin V and PI for flow cytometry (Invitrogen, V13242).

Notch target genes = assay: RT-qPCR of Notch target genes in Notch/NACK-dependent cells; type: cell-based, human; conditions: OE33; FIG. 6B
Protocol: To assess the effect of NACK inhibitor on Notch target gene transcription, Notch/NACK-dependent cell lines were treated with NACK inhibitors. The cells were also treated with DAPT as a positive control. DMSO treated cells served as a vehicle control for comparison. Gene expression was normalized to HPRT, and TBP served as a negative control to validate normalization.
Reverse transcription and qPCR analysis were performed as described previously (See Weaver et al., Cancer Research 74, 4741-4751 (2014)). Gene expression was normalized to the TATA-binding protein (“TBP”) gene. As a control, hypoxanthine phosphoribosyltransferase 1 (“HPRT”) gene expression was also monitored.

Plasma pharmacokinetics = type: in vivo, male C57 BL/6 mice; conditions: for Tmax: ip
Text: The plasma pharmacokinetic profile of Z271-0326 was investigated following a single intravenous and intraperitoneal dose administration in male C57 BL/6 mice (FIG. 12). […] The Vss was similar to the normal volume of total body water (0.7 L/kg). The Vss is a pharmacokinetic parameter, which represents the volume distribution of a drug in the body tissue. […] This dose was MTD for the 4-week efficacy studies shown in preliminary data.
The plasma pharmacokinetic profile of Z271-0326 was investigated following a single intravenous and intraperitoneal dose administration in male C57 BL/6 mice.

LCK = LCK (Homo sapiens, UniProt P06239); assay: ADP-Glo LCK kinase assay; type: biochemical; conditions: FIG. 17B
LCK, sequence (P06239 whole entry, species assumed): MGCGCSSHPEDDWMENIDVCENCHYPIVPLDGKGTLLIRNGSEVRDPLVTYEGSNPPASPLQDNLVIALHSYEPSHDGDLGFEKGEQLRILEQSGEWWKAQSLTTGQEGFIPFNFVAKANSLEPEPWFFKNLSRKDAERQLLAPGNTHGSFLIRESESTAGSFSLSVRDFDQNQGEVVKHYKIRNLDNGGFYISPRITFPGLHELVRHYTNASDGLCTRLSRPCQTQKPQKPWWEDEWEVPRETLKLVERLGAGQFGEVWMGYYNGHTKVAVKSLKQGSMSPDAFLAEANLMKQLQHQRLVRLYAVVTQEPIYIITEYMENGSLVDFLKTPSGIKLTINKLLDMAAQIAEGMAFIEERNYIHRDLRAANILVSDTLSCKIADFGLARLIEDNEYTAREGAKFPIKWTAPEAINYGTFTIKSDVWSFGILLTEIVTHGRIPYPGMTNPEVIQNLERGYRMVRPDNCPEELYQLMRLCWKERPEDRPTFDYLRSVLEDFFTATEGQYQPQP
Protocol: ADP-Glo kinase assay was performed using ADP-Glo™ Kinase Assay (Promega, V6930) according to the manufacture recommended protocol.

For CCN(CC)C(=O)c1cnn2ccc(C3CCN(S(=O)(=O)c4ccc(NC(C)=O)cc4)CC3)cc12 [Compound Z271-0326, 5-(1-((4-acetamidophenyl)sulfonyl)piperidin-4-yl)-N,N-diethylpyrazolo[1,5-a]pyridine-3-carboxamide], the EC50 (OE33 cell line; OE33, OE33 cell line, FIG. 18) was 1270 nM, the EC50 (OE33 cell line; OE33, estimated, FIG. 6C) was 1050 nM and the OE33 colony formation (OE33 cell line; cells treated every other day, FIGS. 5B, 5C) was “effectively inhibit OE33 colony formation”. For the same compound, the MTD at 4 weeks [1] was 25 mg/kg, the secondary sphere formation (OE33 spheres; OE33, FIG. 7A) was “decrease in the ability of cell spheres to form secondary spheres” and the “Notch target genes transcription in spheres” value (OE33 spheres; OE33 spheres, FIG. 7B) was “affected Notch target genes HES1, MYC, CCND1 and NACK transcription”. The “HC11 colony formation / viability” value (HC11 cells) was “but not HC11 cell; also recorded: insensitive”, the “increase in the percent of cells undergoing apoptosis compared to the control” value (OE33 cells) was “threefold” and the “mRNA levels of Notch target genes Hes1 and Notch3” value (Notch target genes) was “decrease the mRNA levels of Notch target genes Hes1 and Notch3”. For the same compound, the Tmax (Plasma pharmacokinetics; male, C57BL/6, mouse, plasma, single intraperitoneal 25 mg/kg) was 15 min, the Tmax (Plasma pharmacokinetics; male, C57BL/6, mouse, plasma, single intraperitoneal 100 mg/kg) was 60 min and the clearance (Plasma pharmacokinetics; male, C57BL/6, mouse, plasma, single intravenous 5 mg/kg, read-out: systemic plasma clearance) was 30 mL/min/kg. The half-life (Plasma pharmacokinetics; male, C57BL/6, mouse, plasma, single intravenous 5 mg/kg, read-out: terminal elimination half-life (converted)) was 13.8 min, the Vd (Plasma pharmacokinetics; male, C57BL/6, mouse, plasma, single intravenous 5 mg/kg, similar to total body water, read-out: Vss) was ~0.7 L/kg and the “time plasma concentrations quantifiable up to” value (Plasma pharmacokinetics; single intraperitoneal 25 mg/kg) was “up to 4 hr”. The “time plasma concentrations quantifiable up to” value (Plasma pharmacokinetics; single intraperitoneal 100 mg/kg) was “up to 24 hr” and the LCK kinase inhibition (LCK) was “meaningfully inhibits LCK”.
